Holding throughout (type): functional
For assay [1], the system named is Litomosoides carinii. In words: Antifilarial activity against Litomosoides carinii infected in gerbil assessed as microfilaria count at 25, 50, 100 and 200 mg/kg administered on days 0, 1, 2 and 3 respectively measured on day 7 relative to control.
In assay [2] the test system is Litomosoides carinii. In words: Antifilarial activity against Litomosoides carinii infected in gerbil assessed as microfilaria count at 25, 50, 100 and 200 mg/kg administered on days 0, 1, 2 and 3 respectively measured on day 3 relative to control.
Assay [3] has as its system Litomosoides carinii. The experiment in a line: Antifilarial activity against Litomosoides carinii infected in gerbil assessed as microfilaria count at 25, 50, 100 and 200 mg/kg administered on days 0, 1, 2 and 3 respectively measured on day 14 relative to control.
Assay [4] concerns Litomosoides carinii. The experiment in a line: Antifilarial activity against Litomosoides carinii infected in gerbil assessed as microfilaria count at 25, 50, 100 and 200 mg/kg administered on days 0, 1, 2 and 3 respectively measured on day 9 relative to control.
In assay [5] the test system is Litomosoides carinii. The experiment in a line: Antifilarial activity against Litomosoides carinii infected in gerbil assessed as microfilaria count at 25, 50, 100 and 200 mg/kg administered on days 0, 1, 2 and 3 respectively measured on day 1 relative to control.
The subject of assay [6] is Litomosoides carinii. In words: In vivo antifilarial activity against Litomosoides carinii.
The subject of assay [7] is Litomosoides carinii. The experiment in a line: Antifilarial activity against Litomosoides carinii infected in gerbil assessed as microfilaria count at 25, 50, 100 and 200 mg/kg administered on days 0, 1, 2 and 3 respectively measured on day 10 relative to control.
Assay [8] relates to Litomosoides carinii. The experiment in a line: Antifilarial activity against Litomosoides carinii infected in cotton rat assessed as reduction of microfilaria relative to control. Details: scale not given: the % may be the effect or the level left.
The test system of assay [9] is Litomosoides carinii. In words: Antifilarial activity against Litomosoides carinii infected in gerbil assessed as microfilaria count at 25, 50, 100 and 200 mg/kg administered on days 0, 1, 2 and 3 respectively measured on day 11 relative to control.
For assay [10], the system named is Litomosoides carinii. In words: Antifilarial activity against Litomosoides carinii infected in natal multimammate rat assessed as reduction of microfilaria relative to control. Details: scale not given: the % may be the effect or the level left.

Among the data in ChEMBL document CHEMBL3272354, “Antifilarial agents. 1,2-Cyclobutanediamines as analogues of diethylcarbamazine. Status of structure-activity relationships among diethylcarbamazine analogues” (1977) are Activity values, retold here.

SMILES strings stand for the structures.

On to `CCOC(=O)N[C@H]1CC[C@@H]1NC.Cl`, for which the Activity in the assay with Litomosoides carinii [1] came to 122%; in the assay with Litomosoides carinii [2], 113%; with Litomosoides carinii [3] it was 151%; with Litomosoides carinii [4], 99%; in the assay on Litomosoides carinii [5] it was 101%.
The compound `CCN(CC)C(=O)N1CCCN(C)CC1` yielded an Activity in the assay on Litomosoides carinii [6] of 1%.
Consider `CCOC(=O)N[C@H]1CC[C@H]1N(C)C.O=C(O)/C=C\C(=O)O` (relative stereo), for which the Activity worked out at 169% in the assay with Litomosoides carinii [1]; 59% in the assay with Litomosoides carinii [2]; 199% in the assay with Litomosoides carinii [3]; 154% with Litomosoides carinii [4]; 127% in the assay on Litomosoides carinii [5].
With `CCOC(=O)N[C@H]1CC[C@@H]1N.Cl` (relative stereo), the Activity turned out to be 148% in the assay with Litomosoides carinii [1]; 163% with Litomosoides carinii [2]; 153% in the assay with Litomosoides carinii [3]; 182% in the assay on Litomosoides carinii [7]; 107% in the assay on Litomosoides carinii [5].
Consider `CCOC(=O)N[C@H]1CC[C@@H]1NC(=O)OCC` (relative stereo), for which the Activity in the assay with Litomosoides carinii [1] is reported as 201%; in the assay with Litomosoides carinii [2], 236%; in the assay with Litomosoides carinii [3] it was 208%; in the assay on Litomosoides carinii [4], 240%; in the assay with Litomosoides carinii [5] it was 189%.
For `CCOC(=O)N(C)[C@H]1CC[C@@H]1NC.O=C(O)/C=C\C(=O)O` (relative stereo), in that order: 150%, 160%, 165%, 95% and 150%.
Regarding `CCOC(=O)N[C@H]1CC[C@@H]1N(C)C.O=C(O)/C=C\C(=O)O` (relative stereo), the Activity is 158% with Litomosoides carinii [1]; 190% with Litomosoides carinii [2]; 213% with Litomosoides carinii [3]; 133% in the assay on Litomosoides carinii [4]; 96% in the assay with Litomosoides carinii [5].
`CCN(CC)C(=O)N[C@H]1CC[C@@H]1N(C)C.O=C(O)CC(O)(CC(=O)O)C(=O)O` (relative stereo): the Activity was found to be 111% with Litomosoides carinii [1]; 113% in the assay on Litomosoides carinii [2]; 161% in the assay with Litomosoides carinii [3]; 137% in the assay on Litomosoides carinii [4]; 106% with Litomosoides carinii [5].
In the case of `CCN(CC)C(=O)N(C)[C@H]1CC[C@@H]1N(C)C.O=C(O)/C=C\C(=O)O` (relative stereo), the Activity in the assay on Litomosoides carinii [1] is on record as 174%; with Litomosoides carinii [2], 99%; with Litomosoides carinii [3], 100%; in the assay with Litomosoides carinii [4] it was 159%; with Litomosoides carinii [5], 185%.
Consider `CCN(CC)C(=O)N1CCN(C)CC1` [DIETHYLCARBAMAZINE], for which the Activity is recorded as 1% in the assay with Litomosoides carinii [8]; 0.1% with Litomosoides carinii [2]; 43% with Litomosoides carinii [9]; 29% in the assay on Litomosoides carinii [4]; 6% with Litomosoides carinii [5].
As for `CN1CCN(C(=O)C2CCCCC2)CC1` [PEXANTEL], the Activity in the assay on Litomosoides carinii [10] came out at 1%.
